Assay results: patent publication US20040014215A1, “Synchronised arabidopsis cell suspensions and uses thereof” (priority 2000, published 2004)

Assays:
cell cycle = conditions: phase of the cell cycle at which cells are arrested; cited from earlier work
CDK-b1 = experiment: Northern expression analysis after aphidicolin synchronisation of MM1 (maximum signal = 100%); assay type: cell-based, Arabidopsis thaliana
Description: (§1) was analysed following the expression level of known cell cycle regulated genes. Synchronisation was performed as described in Example 2A, with the exception that two 7-day old cultures of the weekly sub-cultured cell suspension (210 ml each) were combined. 40 ml of combined culture was transferred into 200 ml of fresh MSS-medium in each of 10 separate flasks. After incubation for 24 hrs under conditions as described in Example 1, in the presence of 4.16 μg/ml aphidicolin, cells from 5 pooled flasks were washed through a nylon net (mesh size 47 μm) and washed with 2 litre MSS medium and shaken vigorously to remove the aphidicolin. Cells were transferred into a 50 ml plastic tube, washed again with MSS medium and centrifuged at 2500 rpm for 1 min (1075 rcf). Cells were resuspended and combined with the cells from the other 5 flasks similarly washed in a total volume of 300 ml fresh MSS-medium. 30 ml of this cell suspension was then added to 200 ml fresh MSS-medium in each of 10 separate flasks.
(§2) 1) 25 ml for Northern blot (transferred into 50 ml plastic tube, centrifuged at 2500 rpm for 1 min, the supernatant discarded, and the cell pellet shock-frozen in liquid nitrogen before storing in −80° C. freezer)
(§3) Samples were collected at the time point indicated (time of removal of aphidicolin equals time point 0 hrs) and were analysed for expression of the following genes by Northern blot:
CDK-b1 (also called Cdc2b/CDK2b: Accession no. ATCDC2BP)
(§4) For each probe the maximum hybridisation signal obtained was defined as 100%.

CycD2 = experiment: as above; assay type: cell-based, Arabidopsis thaliana
Description: as §1, §2, §3, §4

[1] = 0 hrs after aphidicolin removal
[2] = 2 hrs after aphidicolin removal
[3] = 4 hrs after aphidicolin removal
[4] = 6 hrs after aphidicolin removal
[5] = 8 hrs after aphidicolin removal
[6] = 10 hrs after aphidicolin removal
[7] = 12 hrs after aphidicolin removal
[8] = 14 hrs after aphidicolin removal
[9] = 16 hrs after aphidicolin removal
[10] = 18 hrs after aphidicolin removal
[11] = 20 hrs after aphidicolin removal
[12] = 22 hrs after aphidicolin removal
[13] = 24 hrs after aphidicolin removal
[14] = 26 hrs after aphidicolin removal
[15] = 28 hrs after aphidicolin removal
[16] = 30 hrs after aphidicolin removal

C[C@@]1(CO)[C@H](O)CC[C@@]2(C)[C@H]1CC[C@H]1C[C@@H]3C[C@@]12CC[C@]3(O)CO [aphidicolin]
cell cycle arrest (cell cycle): G1/early S
CDK-b1 % (CDK-b1; [1]): 34.26%
CDK-b1 Band intensity (CDK-b1; [1]): 500
CDK-b1 % (CDK-b1; [2]): 57.86%
CDK-b1 Band intensity (CDK-b1; [2]): 844
CDK-b1 % (CDK-b1; [3]): 69.78%
CDK-b1 Band intensity (CDK-b1; [3]): 1018
CDK-b1 % (CDK-b1; [4]): 74.34%
CDK-b1 Band intensity (CDK-b1; [4]): 1085
CDK-b1 % (CDK-b1; [5]): 79.46%
CDK-b1 Band intensity (CDK-b1; [5]): 1160
CDK-b1 % (CDK-b1; [6]): 96.41%
CDK-b1 Band intensity (CDK-b1; [6]): 1407
CDK-b1 % (CDK-b1; [7]): 99.31%
CDK-b1 Band intensity (CDK-b1; [7]): 1450
CDK-b1 % (CDK-b1; [8]): 100.0%
CDK-b1 Band intensity (CDK-b1; [8]): 1459
CDK-b1 % (CDK-b1; [9]): 73.89%
CDK-b1 Band intensity (CDK-b1; [9]): 1078
CDK-b1 % (CDK-b1; [10]): 51.49%
CDK-b1 Band intensity (CDK-b1; [10]): 751
CDK-b1 % (CDK-b1; [11]): 58.87%
CDK-b1 Band intensity (CDK-b1; [11]): 859
CDK-b1 % (CDK-b1; [12]): 42.07%
CDK-b1 Band intensity (CDK-b1; [12]): 614
CDK-b1 % (CDK-b1; [13]): 30.65%
CDK-b1 Band intensity (CDK-b1; [13]): 447
CDK-b1 % (CDK-b1; [14]): 49.74%
CDK-b1 Band intensity (CDK-b1; [14]): 726
CDK-b1 % (CDK-b1; [15]): 50.87%
CDK-b1 Band intensity (CDK-b1; [15]): 742
CDK-b1 % (CDK-b1; [16]): 57.47%
CDK-b1 Band intensity (CDK-b1; [16]): 839
CycD2 % (CycD2; [1]): 11.06%
CycD2 Band intensity (CycD2; [1]): 588
CycD2 % (CycD2; [2]): 18.49%
CycD2 Band intensity (CycD2; [2]): 984
CycD2 % (CycD2; [3]): 14.53%
CycD2 Band intensity (CycD2; [3]): 773
CycD2 % (CycD2; [4]): 20.73%
CycD2 Band intensity (CycD2; [4]): 1103
CycD2 % (CycD2; [5]): 21.64%
CycD2 Band intensity (CycD2; [5]): 1151
CycD2 % (CycD2; [6]): 32.02%
CycD2 Band intensity (CycD2; [6]): 1704
CycD2 % (CycD2; [7]): 51.04%
CycD2 Band intensity (CycD2; [7]): 2716
CycD2 % (CycD2; [8]): 77.14%
CycD2 Band intensity (CycD2; [8]): 4105
CycD2 % (CycD2; [9]): 66.51%
CycD2 Band intensity (CycD2; [9]): 3539
CycD2 % (CycD2; [10]): 100.0%
CycD2 Band intensity (CycD2; [10]): 5322
CycD2 % (CycD2; [11]): 83.89%
CycD2 Band intensity (CycD2; [11]): 4464
CycD2 % (CycD2; [12]): 46.62%
CycD2 Band intensity (CycD2; [12]): 2481
CycD2 % (CycD2; [13]): 64.44%
CycD2 Band intensity (CycD2; [13]): 3429
CycD2 % (CycD2; [14]): 68.56%
CycD2 Band intensity (CycD2; [14]): 3648
CycD2 % (CycD2; [15]): 69.98%
CycD2 Band intensity (CycD2; [15]): 3724
CycD2 % (CycD2; [16]): 62.66%
CycD2 Band intensity (CycD2; [16]): 3334
